Measured values published in publication PMC8464850, “Sulfonium Ligands of the α7 nAChR” (Molecules, 2021).

Tests used:
Assay type in all cases: cell-based
[1] = molecular target: T1, α3β4 (Homo sapiens, UniProt P30926+P32297); assay: Activation of heteromeric nAChR by S1: α3β4
T1 construct: expressed in transfected cells; host or cells: Xenopus laevis oocytes (injected RNA)
From the text: (§1) Concatamers were used in order to obtain heteromeric receptors with known subunit composition. The β2-6-α4 concatamer was co-expressed with monomeric α4, β2, or α5 to obtain receptors with the composition α4(3)β2(2), α4(2)β2(3), or α4(2)β2(2)α5, respectively. A concatamer of five linked subunits was used to obtain the β3α4 β2α6β2 receptors. The α3β4 receptors were formed from the co-expression of α3 and β4 subunit monomers at equal ratios. Note that the data were initially measured relative to internal ACh control responses for each oocyte (Methods). Responses were subsequently adjusted for the relative values of the ACh controls and the ACh maximum responses for each of the various subtypes, determined in previous experiments.
(§2) Figure 6 Activation of heteromeric neuronal nAChR by S1. […] Data are the average peak currents (n = 6–8 oocytes ± SEM), measured relative to initial ACh control responses for each oocyte (concentrations listed in Methods). Responses were subsequently adjusted for the relative values of the ACh controls and the ACh maximum responses for each of the various subtypes, determined in previous experiments. […]
(§3) Solutions were applied from 96-well plates via disposable tips. […] The responses were calculated as both peak current amplitudes and net charge, as previously described. […] Multi-cell averages were calculated for comparisons of complex responses. […]

[2] = molecular target: T2, α4β2α5 (Homo sapiens, UniProt P17787+P43681); assay: Activation of heteromeric nAChR by S1: α4(2)β2(2)α5
T2 construct: expressed in transfected cells; host or cells: Xenopus laevis oocytes (injected RNA)
T2 sequence (P17787 26-502): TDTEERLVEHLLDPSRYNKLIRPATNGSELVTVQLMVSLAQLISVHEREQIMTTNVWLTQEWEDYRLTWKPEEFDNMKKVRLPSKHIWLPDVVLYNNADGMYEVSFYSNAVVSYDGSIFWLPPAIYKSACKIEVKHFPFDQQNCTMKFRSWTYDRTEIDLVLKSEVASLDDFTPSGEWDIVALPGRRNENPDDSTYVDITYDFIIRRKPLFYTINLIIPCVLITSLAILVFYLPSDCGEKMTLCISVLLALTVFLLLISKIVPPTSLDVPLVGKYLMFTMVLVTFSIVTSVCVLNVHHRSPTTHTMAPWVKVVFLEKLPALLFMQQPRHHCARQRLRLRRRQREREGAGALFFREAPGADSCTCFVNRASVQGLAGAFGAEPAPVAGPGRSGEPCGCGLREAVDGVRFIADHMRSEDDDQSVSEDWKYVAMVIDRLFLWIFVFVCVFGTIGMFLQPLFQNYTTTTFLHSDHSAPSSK
T2 sequence (P43681 29-627 limits assumed): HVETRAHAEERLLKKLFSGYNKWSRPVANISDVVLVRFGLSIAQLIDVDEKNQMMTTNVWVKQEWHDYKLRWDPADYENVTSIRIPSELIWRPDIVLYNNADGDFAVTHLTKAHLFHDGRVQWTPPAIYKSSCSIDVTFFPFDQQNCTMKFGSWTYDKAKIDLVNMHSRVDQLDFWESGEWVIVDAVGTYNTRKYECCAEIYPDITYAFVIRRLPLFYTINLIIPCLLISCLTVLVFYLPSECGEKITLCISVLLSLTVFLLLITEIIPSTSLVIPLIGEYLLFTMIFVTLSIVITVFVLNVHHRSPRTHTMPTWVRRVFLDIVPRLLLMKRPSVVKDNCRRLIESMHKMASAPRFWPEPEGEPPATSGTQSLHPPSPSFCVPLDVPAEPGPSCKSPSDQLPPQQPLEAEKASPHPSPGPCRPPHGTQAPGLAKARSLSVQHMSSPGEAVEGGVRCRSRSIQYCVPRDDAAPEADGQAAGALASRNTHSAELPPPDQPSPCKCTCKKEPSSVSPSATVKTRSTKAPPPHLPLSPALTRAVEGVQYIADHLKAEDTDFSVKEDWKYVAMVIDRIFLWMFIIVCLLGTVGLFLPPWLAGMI
From the text: as §1, §2, §3

[3] = molecular target: T3, β3α4 β2α6β2 (Homo sapiens, UniProt P17787+P43681+Q15825); assay: Activation of heteromeric nAChR by S1: β3α4β2α6β2 concatamer
T3 construct: expressed in transfected cells; host or cells: Xenopus laevis oocytes (injected RNA)
T3 sequence (P43681 29-627 limits assumed): as above
T3 sequence (P17787 26-502): as the sequence (P17787 26-502) above
T3 sequence (Q15825 26-494): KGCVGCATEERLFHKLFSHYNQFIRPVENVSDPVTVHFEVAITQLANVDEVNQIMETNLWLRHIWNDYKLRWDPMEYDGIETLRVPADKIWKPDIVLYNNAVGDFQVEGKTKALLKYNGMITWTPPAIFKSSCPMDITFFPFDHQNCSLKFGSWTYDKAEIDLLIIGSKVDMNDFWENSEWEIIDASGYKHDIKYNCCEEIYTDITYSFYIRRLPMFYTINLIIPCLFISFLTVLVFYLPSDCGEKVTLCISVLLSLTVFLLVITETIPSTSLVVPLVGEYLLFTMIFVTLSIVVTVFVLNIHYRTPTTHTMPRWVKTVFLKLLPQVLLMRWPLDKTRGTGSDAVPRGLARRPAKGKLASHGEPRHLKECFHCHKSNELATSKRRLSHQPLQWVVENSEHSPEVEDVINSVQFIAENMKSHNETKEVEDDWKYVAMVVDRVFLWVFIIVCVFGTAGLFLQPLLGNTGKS
From the text: as §1, §2, §3

[4] = molecular target: T4, α4(2)β2(2)β2L15’M receptors (Homo sapiens, UniProt P17787+P43681, L280M); assay: Silent agonism of the TQS-sensitive α4β2L15’M mutant receptor
T4 construct: expressed in transfected cells; host or cells: Xenopus laevis oocytes (injected RNA)
T4 sequence (P17787 26-502, stated change not applied): as the sequence (P17787 26-502) above
T4 sequence (P43681 27-627): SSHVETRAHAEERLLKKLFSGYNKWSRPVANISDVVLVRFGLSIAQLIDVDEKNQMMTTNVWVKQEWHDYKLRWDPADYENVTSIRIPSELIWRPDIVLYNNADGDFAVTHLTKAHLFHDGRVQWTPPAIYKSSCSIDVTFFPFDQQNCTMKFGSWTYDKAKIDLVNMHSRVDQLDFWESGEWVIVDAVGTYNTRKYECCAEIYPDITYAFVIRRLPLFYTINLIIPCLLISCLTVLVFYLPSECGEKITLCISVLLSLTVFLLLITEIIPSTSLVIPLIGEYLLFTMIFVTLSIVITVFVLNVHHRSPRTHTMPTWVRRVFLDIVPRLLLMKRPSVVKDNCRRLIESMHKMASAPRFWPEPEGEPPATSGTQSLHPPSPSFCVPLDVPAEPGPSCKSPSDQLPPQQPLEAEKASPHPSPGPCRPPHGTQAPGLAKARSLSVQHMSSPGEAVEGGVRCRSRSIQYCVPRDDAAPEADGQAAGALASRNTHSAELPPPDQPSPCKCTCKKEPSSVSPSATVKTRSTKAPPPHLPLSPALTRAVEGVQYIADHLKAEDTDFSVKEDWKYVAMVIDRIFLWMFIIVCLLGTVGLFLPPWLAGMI
T4 sequence (P17787 26-502 L280M): as the sequence (P17787 26-502) above, with L255M counted along it
Protocol: We conducted a screen of the other sulfonium compounds on the α4β2L15’M receptors and identified at least two compounds that gave potentiated responses above our limit of detection indicated by the dotted line in Figure 8B.
Figure 8 Silent agonism of an α4β2 mutant receptor that is sensitive to the α7 PAM TQS. (A) The averaged raw data of responses of eight oocytes expressing the β2-6-α4 concatamer and the β2L15’M mutant to 100 µM of the sulfonium agonist S1, applied alone or co-applied with 30 µM racemic TQS. […] (B) Evaluation of the effects of the sulfonium compounds, applied alone at 100 µM or co-applied with 30 µM TQS to α4(2)β2(2)β2L15’M receptors. […]
(§4) Solutions were applied from 96-well plates via disposable tips. […] The responses were calculated as both peak current amplitudes and net charge, as previously described. Data were collected at 50 Hz, filtered at 20 Hz for α7 receptors or filtered at 5 Hz for heteromeric nAChR, and analyzed by Clampfit (Molecular Devices, San Jose, CA, USA) and Excel (Microsoft, Redmond, WA, USA). Data were expressed as means ± SEM from at least four oocytes for each experiment and plotted with Kaleidagraph 4.5.2 (Abelbeck Software, Reading, PA, USA). Multi-cell averages were calculated for comparisons of complex responses. […]

[5] = molecular target: T5, muscle-type (α1β1εδ) receptors (Mus musculus, UniProt P02716+P04756+P20782); assay: Activation of muscle-type receptors; conditions: not shown
T5 construct: expressed in transfected cells; host or cells: Xenopus laevis oocytes (injected RNA)
From the text: The human nAChR clones were obtained from Jon Lindstrom (University of Pennsylvania, Philadelphia, PA, USA). Mouse muscle subunit clones were obtained from Jim Boulter (Salk Institute, La Jolla, CA, USA) and Paul Gardner (Dartmouth, Hanover, NH, USA). The human resistance-to-cholinesterase 3 (RIC3) clone was obtained from Millet Treinin (Hebrew University, Jerusalem, Israel) and co-injected with α7 to improve the level and speed of α7 receptor expression without affecting the pharmacological properties of the receptors. Subsequent to linearization and purification of the plasmid DNAs, RNAs were prepared using the mMessage mMachine in vitro RNA transcription kit (Ambion, Austin, TX, USA).
Experiments were conducted using OpusXpress 6000A (Molecular Devices, Union City, CA, USA). […]
as §4

[6] = peak currents relative to ACh maximum

T1 sequence (P32297 32-505): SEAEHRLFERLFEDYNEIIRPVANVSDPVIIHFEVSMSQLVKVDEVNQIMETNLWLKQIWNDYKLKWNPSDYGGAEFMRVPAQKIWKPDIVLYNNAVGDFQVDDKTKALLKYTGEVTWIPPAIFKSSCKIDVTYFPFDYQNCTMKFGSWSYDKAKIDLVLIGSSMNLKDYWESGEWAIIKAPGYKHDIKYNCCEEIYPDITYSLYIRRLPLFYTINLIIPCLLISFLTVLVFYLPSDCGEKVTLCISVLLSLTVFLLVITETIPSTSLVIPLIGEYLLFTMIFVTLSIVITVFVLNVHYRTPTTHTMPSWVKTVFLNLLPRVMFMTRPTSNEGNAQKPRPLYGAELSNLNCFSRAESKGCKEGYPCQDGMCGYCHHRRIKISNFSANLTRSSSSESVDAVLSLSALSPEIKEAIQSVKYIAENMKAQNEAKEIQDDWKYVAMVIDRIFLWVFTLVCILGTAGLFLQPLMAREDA
T1 sequence (P30926 22-498): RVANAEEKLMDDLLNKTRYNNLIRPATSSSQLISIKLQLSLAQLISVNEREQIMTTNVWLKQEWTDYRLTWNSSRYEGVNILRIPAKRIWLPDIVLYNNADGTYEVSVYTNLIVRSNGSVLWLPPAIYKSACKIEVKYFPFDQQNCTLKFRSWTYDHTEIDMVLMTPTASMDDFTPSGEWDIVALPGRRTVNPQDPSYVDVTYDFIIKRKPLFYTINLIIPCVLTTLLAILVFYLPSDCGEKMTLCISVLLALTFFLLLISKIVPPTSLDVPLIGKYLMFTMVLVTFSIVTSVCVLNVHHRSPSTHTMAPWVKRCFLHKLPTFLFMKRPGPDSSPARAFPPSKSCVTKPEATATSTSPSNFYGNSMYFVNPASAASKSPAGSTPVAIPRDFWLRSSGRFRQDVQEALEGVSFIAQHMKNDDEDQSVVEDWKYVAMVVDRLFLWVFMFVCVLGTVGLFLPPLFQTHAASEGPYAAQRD

C[S+](C)C.[I-] [Compound S1, trimethylsulfonium iodide]
IMax (S1 Activation) [1, 6]: 1.18 ± 0.01
EC50 ([1]; peak currents, unit inferred): 1.42 ± 0.0194 mM
IMax (S1 Activation) [2, 6]: 0.50 ± 0.03
EC50 ([2]; peak currents, unit inferred): 114 ± 25 µM
IMax (S1 Activation) [3, 6]: 0.71 ± 0.35
EC50 ([3]; peak currents, unit inferred): 333 ± 51 µM
activation of α4β2L15’M mutant receptors ([4]; 100 µM applied alone): activated the α4β2L15’M mutant receptors
response on co-application with TQS ([4]; 100 µM compound with 30 µM TQS, limit of detection 20 nA): potentiated by TQS
activation of muscle-type receptors [5]: not an effective activator
